# In US20230414610A1, “THERAPIES FOR CANCER USING SMALL MOLECULES THAT BIND TO AND INHIBIT RAIL INTERACTING PROTEINS” (Texas Tech University System, priority 2020, published 2023):
# Test system: breast cancer cells
# Assay: Breast cancer cell inhibition in vitro
# Type: cell-based
# Settings: by inhibiting RLIP
row,SMILES,killing of breast cancer cells
1,O=C(N/N=C1/c2ccccc2-c2nc3nonc3nc21)c1ccccc1O [TTUHSC-SS-A4],kill breast cancer cells at low concentrations
2,[H]/N=C(\N)Nc1nc(-c2ccccc2)c2cc(F)ccc2n1 [TTUHSC-SS-B9],kill breast cancer cells at low concentrations
3,O=c1cc(COc2cccc(-n3cnnn3)c2)c2ccccc2[nH]1 [TTUHSC-SS-C2],kill breast cancer cells at low concentrations
4,c1ccc(-c2nnc(NCc3nc4ccccc4[nH]3)c3ccccc23)cc1 [TTUHSC-SS-C4],kill breast cancer cells at low concentrations
5,N#Cc1nc(-c2ccccn2)c2c(c1-c1ccccc1)CCC2 [TTUHSC-SS-E4],kill breast cancer cells at low concentrations
